Assay [1] deals with anti-CD3/CD28 stimulated CD4^+ cells. The experiment in a line: qPCR of complement and FoxP3 mRNA in anti-CD3/CD28 stimulated CD4+ cells. Particulars: for FoxP3 mRNA transcription: anti-CD3/28 stimulated naive CD4+ cells, C5a 100 ng/ml, 1 hr; for transcription of complement genes (complement mRNA): qPCR. Format: cell-based, C57BL/6 mice. Here is the method: FIGS. 3(A-I) illustrate graphs showing: A) 1×10^6 CD62L^hiCD25^−CD4^+ cells from WT or C3aR^−/−C5aR^−/− mice were incubated with anti-CD3/CD28 Dynabead activation beads, 5 ng/ml rhIL-2, and 1×10^5 CD11c^+ WT DCs for 3 days. The CD4^+ cell and DC partners were sorted, after which the DCs were assayed for B7 family members (*P<0.01; **P<0.03; ***P=0.07) and the CD4^+ cells were assayed for B7 coinhibitory counter-receptors by flow. B) 1×10^6 CD62L^hiCD25^−CD4^+ cells from WT mice were incubated with anti-CD3/CD28 Dynabead activation beads, 5 ng/ml rhIL-2, and 1×10^5 CD11c^+ WT DCs for 3 days±10 nM C3aR-A/C5aR-A or ±5 ng/ml rhTGF-fβ1. The CD4^+ cell and DC partners were sorted, after which the cells were assayed as in (A; *P<0.01 C3aR-A/C5aR-A vs. TGF-β1). C) 1×10^6 CD62L^hiCD25^− CD4^+ cells from WT or C3aR^−/−C5aR^−/− were incubated with anti-CD3/CD28 Dynabead activation beads, 5 ng/ml rhIL-2, and 1×10^5 CD11c^+ WT DCs for 3 days in the presence of blocking anti-CTLA-4, anti-PD-1, or anti-ICOS-L Abs and percent FoxP3^+ cells assayed by flow cytometry. D) 1×10^6 CD62L^hiCD25^− CD4^+ cells from WT, ICOS^−/−, or PD-1^−/− were incubated with anti-CD3/CD28 Dynabead activation beads, 5 ng/ml rhIL-2, and […] CD11c^+ WT or PD-L1^−/− DCs for 3 days in the presence of blocking anti-CTLA-4, anti-PD-1, or anti-ICOS-L Abs and percent FoxP3^+ cells assayed by flow cytometry. E) Anti-CD3/CD28 stimulated CD4^+ cells were treated with TGF-β1 or buffer and complement mRNA transcripts were assayed by qPCR. F-H) 1×10^4 CD62L^hiCD25^− CD4^+ cells from C57BL/6 mice were incubated with anti-CD3/CD28 Dynabeads and 5 ng/ml rhIL-2 for 3 days in the presence of TGF-β, TGF-β+IL-6, or IL-6 after which cells were assayed for (F) C3 mRNA expression by qPCR, (G) C3 and C5a generation by ELSIA, and (H) C3aR and C5aR surface expression by flow cytometry. I) C57BL/6 CD4^+ T cells were incubated for 1 hr with anti-CD3/CD28±100 ng/ml C5a and FoxP3 mRNA was quantitated by qPCR.
For C3aR/C5aR signaling to be absent, local complement production by interacting DCs and CD4^+ cells must not occur or be suppressed. […] As a first test of this, we incubated anti-CD3/CD28 stimulated CD4^+ cells in the presence and absence of TGF-β1. […] To test how IL-6 affects CD4^+ cell complement production, we added IL-6 to naive CD4^+ cells. […]
[…] for 5 min at 20° C. using Trizol (Invitrogen, Carlsbad, Calif.) according to the manufacturer. When C3aR and C5aR mRNAs were analyzed, preparations were treated with DNase I (standard protocol) to remove genomic DNA. cDNAs were synthesized by incubating 20 μl of mRNAs in Sprint PowerScript Single Shots (Clontech, Mountain View, Calif.). […]
For orientation: In qPCR the cycle at which signal appears reflects the starting amount.

The subject of assay [2] is DC-CD4^+ cell C3a/C5a production. The experiment in a line: C3a/C5a generation by ELISA. Type of assay: cell-based, C57BL/6 mice. Particulars: 3 days. Here is the method:
(§1) FIGS. 3(A-I) illustrate graphs showing: A) 1×10^6 CD62L^hiCD25^−CD4^+ cells from WT or C3aR^−/−C5aR^−/− mice were incubated with anti-CD3/CD28 Dynabead activation beads, 5 ng/ml rhIL-2, and 1×10^5 CD11c^+ WT DCs for 3 days. The CD4^+ cell and DC partners were sorted, after which the DCs were assayed for B7 family members (*P<0.01; **P<0.03; ***P=0.07) and the CD4^+ cells were assayed for B7 coinhibitory counter-receptors by flow. B) 1×10^6 CD62L^hiCD25^−CD4^+ cells from WT mice were incubated with anti-CD3/CD28 Dynabead activation beads, 5 ng/ml rhIL-2, and 1×10^5 CD11c^+ WT DCs for 3 days±10 nM C3aR-A/C5aR-A or ±5 ng/ml rhTGF-fβ1. The CD4^+ cell and DC partners were sorted, after which the cells were assayed as in (A; *P<0.01 C3aR-A/C5aR-A vs. TGF-β1). […] I) C57BL/6 CD4^+ T cells were incubated for 1 hr with anti-CD3/CD28±100 ng/ml C5a and FoxP3 mRNA was quantitated by qPCR. […]
For C5a, C3a, IL-2, IL-10, and IL-6, capture and biotinylated detection Ab pairs were purchased from BD Biosciences. […] Reactions were terminated using 1N H2SO4 and plates were read using a SpectraMax M2 fluorimeter. • Induction and Evaluation of EAE
(In general: ELISA stands for enzyme-linked immunosorbent assay.)

In assay [3] the test system is C3aR/C5aR expression. The experiment in a line: C3aR and C5aR surface expression by flow cytometry. Format: cell-based, C57BL/6 mice. Particulars: 3 days. Here is the method: as §1, with “TGF-β1). C) 1×10^6 CD62L^hiCD25^− CD4^+ cells from WT or C3aR^−/−C5aR^−/− were incubated with anti-CD3/CD28 Dynabead activation beads, 5 ng/ml rhIL-2, and 1×10^5 CD11c^+ WT DCs for 3 days in the presence of blocking anti-CTLA-4, anti-PD-1, or anti-ICOS-L Abs and percent FoxP3^+ cells assayed by flow cytometry.” for “TGF-β1).”
On the technique in general: In flow cytometry, cells or beads pass a laser one at a time.

In assay [4] the test system is human CD45RA^+CD25^−CD4^+ cells. The experiment in a line: Human iTreg preparation and human Treg suppression assay. Type of assay: cell-based. Here is the method: FIGS. 5(A-G) illustrate graphs showing, A-C) EAE was induced in FoxP3-GFP knockin mice and 10 days after disease onset, CD4 cells were isolated from spleens and lymph nodes and sorted on GFP. 4×10^6 GFP negative cells were adoptively transferred into Rag2^−/− mice. The mice were subsequently injected with 1×10^6 FoxP3-GFP positive cells or PBS after which A) weight change, B) clinical scores, and C) percent FoxP3^+ cells were assayed. D-E) EAE was induced in WT and C3aR^−/−C5aR^−/− mice and at day 12 post disease induction draining LN cells were harvested and assayed for D) % FoxP3^+ cells, and E) suppressive capacity as above. F) EAE was induced in FoxP3-GFP knockin mice and 10 days after induction mice were treated with buffer control, C3aR-A/C5aR-A, or ex vivo generated FoxP3^+ Tregs (from FoxP3-GFP mice with C3aR-A/C5aR-A), after which […]) clinical scores were assessed. G) CD25^+ cells from 1×10^6 CD25^−CD4^+ Human T cells isolated by flow cytometry and incubated with soluble anti-CD3, IL-2, and autologous DCs in the presence and absence of TGF-β, C3aR-A/C5aR-A, or anti-C3a/C5a mAbs for 3 days were incubated with CFSE labeled autologous naive T cells, anti-CD3, and autologous DCs and percent dividers determined 3 days thereafter by CFSE dilution. […]

Assay [5] relates to iTregs. The experiment in a line: Costimulatory molecule expression of iTregs by flow cytometry. Type of assay: cell-based, mice. Particulars: higher. Here is the method:
as §1, with “TGF-β1). C) 1×10^6 CD62L^hiCD25^− CD4^+ cells from WT or C3aR^−/−C5aR^−/− were incubated with anti-CD3/CD28 Dynabead activation beads, 5 ng/ml rhIL-2, and 1×10^5 CD11c^+ WT DCs for 3 days in the presence of blocking anti-CTLA-4, anti-PD-1, or anti-ICOS-L Abs and percent FoxP3^+ cells assayed by flow cytometry.” for “TGF-β1).”

Assay [6] deals with naive CD4^+ cells. The experiment in a line: FoxP3+ iTreg induction from naive CD4+ cells stimulated with anti-CD3, IL-2 and DCs (flow cytometry). Type of assay: cell-based, mice.
Assay [7] deals with CellTracker Red-labeled OT-II cells. The experiment in a line: Murine Treg suppression assay. Type of assay: cell-based, mice. Particulars: cells from stimulated naive C3−/−C5−/− CD4+ cells, C5a added.

For the molecule “IL-6: cytokine IL-6 added to naive CD4+ cells”, in assay [1], the “FoxP3 mRNA transcription” value is on record as “inhibited” and the “transcription of complement genes (complement mRNA)” value was “upregulated”. Moreover, the “DC-CD4+ cell C3a/C5a production” value in assay [2] is given as “evoked”. The C3aR/C5aR expression result in assay [3] was “upregulated”.

As to TGF-β1: human TGF-β1 from Prospec Bio, in assay [1], the “transcription of complement genes (complement mRNA)” value is reported as “abolished”. Also, the “DC-CD4+ cell C3a/C5a production” value in assay [2] is recorded as “did neither”. In addition, the “costimulatory molecules on human iTregs (phenotyping)” value in assay [4] (human iTregs) is listed as “showed costimulatory molecules”. Besides, the “suppression by CD25+ (FoxP3+) cells of CFSE-labeled CD25−CD4+ cells” value in assay [4] (human, equal number of sorted CD25+ cells, DCs, anti-CD3, same individual) was “little effect”. Further, the C3aR/C5aR expression result in assay [3] is recorded as “did neither”. In addition, the “costimulatory molecule expression of iTregs generated with exogenous TGF-β1 relative to those generated by C3aR/C5aR antagonism” value in assay [5] is listed as 3-6 fold. Moreover, in assay [6] (anti-CD3/CD28 stimulated CD4+ cells, added TGF-β1), the “FoxP3+ cell induction” value is “induced FoxP3^+ cells”.

B1: C5a: Murine C5a from Cell Sciences, Inc (protein, UniProt P06684 679-755, looked up)
C5a anaphylatoxin: NLHLLRQKIEEQAAKYKHSVPKKCCYDGARVNFYETCEERVARVTIGPLCIRAFNECCTIANKIRKESPHKPVQLGR
modifications: C5a anaphylatoxin
notes: Murine C5a from Cell Sciences, Inc
Consider B1, for which the “FoxP3 mRNA transcription” value in assay [1] is on record as “inhibited”. For the same molecule, the iTreg induction result in assay [6] (naive C3−/−C5−/− CD4+ cells stimulated with anti-CD3, DCs and IL-2, C5a added) is given as “blocked”. The suppressor function result in assay [7] is “blocked”.

Source of the values: patent US10933093B2, “Compositions and methods of treating a T cell mediated disorder” (CASE WESTERN RESERVE UNIVERSITY, priority 2009, dated 2021).
